Data: US20230364230A1, “COMBINATION THERAPY FOR CANCER” (ENGMAB SÀRL, priority 2020, published 2023)

Biological target: Aiolos (Homo sapiens, UniProt Q96SW2+Q9UKT9)
Assay: Degradation of Aiolos in primary NK cells (intracellular staining, flow cytometry)
Assay type: cell-based
Design: endogenous in cells; host or cells: primary human NK cells gated from healthy-donor PBMCs
Settings: PBMCs from healthy donors (n=7), dose titrations, 5 hours
Experimental: Intracellular staining of Aiolos and Ikaros in primary human NK cells was performed by flow cytometry gating on live, CD3-CD4-CD8-CD56+CD16+NK cell populations.

Sequence of Aiolos (Q9UKT9 whole entry): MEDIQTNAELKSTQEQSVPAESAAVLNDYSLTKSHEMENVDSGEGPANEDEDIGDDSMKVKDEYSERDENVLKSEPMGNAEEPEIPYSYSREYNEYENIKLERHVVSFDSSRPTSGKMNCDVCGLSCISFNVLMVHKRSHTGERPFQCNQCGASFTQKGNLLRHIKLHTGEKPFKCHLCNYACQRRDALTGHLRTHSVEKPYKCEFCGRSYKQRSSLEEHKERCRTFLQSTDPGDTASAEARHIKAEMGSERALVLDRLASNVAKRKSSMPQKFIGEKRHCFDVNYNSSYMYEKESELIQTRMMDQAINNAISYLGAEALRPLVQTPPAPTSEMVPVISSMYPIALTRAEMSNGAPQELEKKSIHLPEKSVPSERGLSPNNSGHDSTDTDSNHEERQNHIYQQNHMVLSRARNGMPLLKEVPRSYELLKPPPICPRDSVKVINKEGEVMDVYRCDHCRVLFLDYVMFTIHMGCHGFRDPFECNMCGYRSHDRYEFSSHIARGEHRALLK
Sequence of Aiolos (Q96SW2 whole entry): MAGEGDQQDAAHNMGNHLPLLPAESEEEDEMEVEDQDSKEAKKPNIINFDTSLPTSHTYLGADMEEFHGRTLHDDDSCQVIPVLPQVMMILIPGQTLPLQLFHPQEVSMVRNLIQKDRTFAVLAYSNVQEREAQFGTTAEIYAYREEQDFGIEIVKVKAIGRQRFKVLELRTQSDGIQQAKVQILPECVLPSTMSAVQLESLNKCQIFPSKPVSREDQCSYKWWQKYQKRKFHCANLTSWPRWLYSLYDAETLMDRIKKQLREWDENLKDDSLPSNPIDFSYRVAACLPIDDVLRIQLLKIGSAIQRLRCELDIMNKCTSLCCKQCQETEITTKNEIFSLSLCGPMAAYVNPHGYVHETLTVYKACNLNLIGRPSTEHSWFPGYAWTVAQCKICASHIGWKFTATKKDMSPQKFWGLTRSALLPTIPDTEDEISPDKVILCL
Sequence of Aiolos (Q16531 whole entry partner): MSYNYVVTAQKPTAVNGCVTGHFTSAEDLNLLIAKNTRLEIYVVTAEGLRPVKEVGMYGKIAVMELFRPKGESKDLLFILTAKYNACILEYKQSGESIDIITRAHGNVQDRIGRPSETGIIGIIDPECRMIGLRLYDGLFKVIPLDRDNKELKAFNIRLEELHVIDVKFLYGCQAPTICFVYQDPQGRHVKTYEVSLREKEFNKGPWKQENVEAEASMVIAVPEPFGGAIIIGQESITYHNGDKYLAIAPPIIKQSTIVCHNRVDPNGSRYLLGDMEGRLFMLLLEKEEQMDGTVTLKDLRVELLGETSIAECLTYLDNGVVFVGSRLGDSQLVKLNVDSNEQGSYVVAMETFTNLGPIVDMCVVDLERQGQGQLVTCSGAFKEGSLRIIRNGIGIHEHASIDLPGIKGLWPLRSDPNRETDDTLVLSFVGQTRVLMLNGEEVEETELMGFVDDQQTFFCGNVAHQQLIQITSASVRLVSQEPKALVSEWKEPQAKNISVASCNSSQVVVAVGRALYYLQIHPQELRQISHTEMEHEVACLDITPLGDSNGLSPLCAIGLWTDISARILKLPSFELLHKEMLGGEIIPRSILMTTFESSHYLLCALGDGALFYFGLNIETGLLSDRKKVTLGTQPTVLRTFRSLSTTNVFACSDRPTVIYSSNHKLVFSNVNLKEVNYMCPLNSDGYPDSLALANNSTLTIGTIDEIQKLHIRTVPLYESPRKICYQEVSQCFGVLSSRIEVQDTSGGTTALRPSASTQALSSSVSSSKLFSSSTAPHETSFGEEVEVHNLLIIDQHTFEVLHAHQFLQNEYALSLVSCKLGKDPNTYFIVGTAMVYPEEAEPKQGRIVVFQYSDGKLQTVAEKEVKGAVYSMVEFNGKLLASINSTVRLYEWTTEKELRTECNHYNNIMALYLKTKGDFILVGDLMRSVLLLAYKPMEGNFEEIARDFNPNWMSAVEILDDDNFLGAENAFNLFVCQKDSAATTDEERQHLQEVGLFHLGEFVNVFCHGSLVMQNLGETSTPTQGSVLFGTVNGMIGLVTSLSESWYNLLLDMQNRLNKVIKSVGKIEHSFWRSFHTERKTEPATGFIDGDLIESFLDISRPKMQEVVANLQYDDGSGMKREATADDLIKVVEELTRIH

degradation of Aiolos in primary NK cells: mediates degradation
SMILES: O=C1CC[C@H](N2Cc3c(OCc4ccc(CN5CCOCC5)cc4)cccc3C2=O)C(=O)N1 [CC-220, (S)-3-(4-((4-(Morpholinomethyl)benzyl)oxy)-1-oxoisoindolin-2-yl)piperidine-2,6-dione]
